# Assay results as given in patent publication US4393050A, “Analogs of extended N-terminal somatostatin” (The Salk Institute for Biological Studies, priority 1981, dated 1983).
# Where two headings read alike, the source gives them in different places. Residues, ends and D or L forms follow the SMILES beside them.
# Columns and labels:
# [1] = system: cells of rat pituitary glands; assay type: cell-based
# Experimental: To determine the effectiveness of the peptides to inhibit the release of growth hormone, in vitro radioimmunoassays are carried out using the SS-28 analogs in side-by-side comparison with equimolar concentrations of somotostatin-14 having a known effectiveness to inhibit the release of growth hormone induced by the application of isobutyl methyl xanthine to pituitary cells. Cultures are used which include cells of rat pituitary glands removed some four to five days previously in a system that minimizes enzymatic degradation, generally following the procedure set forth in Vale et al., Methods in Enzymology, Hormones and Cyclic Nucleotides (1975) Vol. 37, p. 82. Both cultures of a defined standard medium and cultures which are considered optimal for the secretion of growth hormone, as a result of having additions of either 2% or 10% of serum from a foetal calf, are used for the comparative testing.
# insulin secretion = assay type: in vivo, rats
# Experimental: (§1) In vivo experiments are carried out with the SS-28 analogs, using the procedure described in Brown et al., Metabolism (1976) Vol. 25, pp. 1501-1503, to determine the potency, relative to somatostatin-14 to inhibit the secretion of glucagon and insulin stimulated by the administration of arginine to groups of six rats.
# glucagon secretion = assay type: in vivo, rats
# Experimental: as §1
# [2] = juvenile-type diabetics, complete absence of circulating insulin; cited from earlier work
# [3] = rats, arginine-stimulated secretion, SS-14 = 1
SMILES,"In Vitro Growth Hormone (potency to inhibit release, relative to SS-14) [1]","In Vivo Insulin (potency to inhibit secretion, relative to SS-14) (insulin secretion; rat, in vivo)","In Vivo Glugacon (potency to inhibit secretion, relative to SS-14) (glucagon secretion; rat, in vivo)","In Vivo Insulin (potency to inhibit secretion, relative to SS-14) (insulin secretion; [3])","In Vivo Glugacon (potency to inhibit secretion, relative to SS-14) (glucagon secretion; [3])",diminution of fasting hyperglycemia [2] [%],"In Vitro Growth Hormone (potency to inhibit release, relative to SS-14) ([1]; rat pituitary cell cultures, isobutyl methyl xanthine-induced GH release, SS-14 = 1)"
"CC(C)C[C@H](NC(=O)[C@H](C)NC(=O)[C@@H]1CCCN1C(=O)[C@H](CC(N)=O)NC(=O)[C@H](CO)NC(=O)[C@H](CC(N)=O)NC(=O)[C@H](C)NC(=O)[C@@H](N)CO)C(=O)N[C@@H](C)C(=O)N1CCC[C@H]1C(=O)N[C@@H](CCCNC(=N)N)C(=O)N[C@@H](CCC(=O)O)C(=O)N[C@@H](CCCNC(=N)N)C(=O)N[C@@H](CCCCN)C(=O)N[C@@H](C)C(=O)NCC(=O)N[C@H]1CSSC[C@@H](C(=O)O)NC(=O)[C@H](CO)NC(=O)[C@H]([C@@H](C)O)NC(=O)[C@H](Cc2ccc(O)cc2)NC(=O)[C@H]([C@@H](C)O)NC(=O)[C@H](CCCCN)NC(=O)[C@@H](Cc2c[nH]c3ccccc23)NC(=O)[C@H](Cc2ccccc2)NC(=O)[C@H](Cc2ccccc2)NC(=O)[C@H](CC(N)=O)NC(=O)[C@H](CCCCN)NC1=O [Peptide 1, [Leu^8, D-Trp^22, Tyr^25]--SS-28] (HELM PEPTIDE1{S.A.N.S.N.P.A.L.A.P.R.E.R.K.A.G.C.K.N.F.F.[dW].K.T.Y.T.S.C}$PEPTIDE1,PEPTIDE1,17:R3-28:R3$$$V2.0)",4.84,–,–,–,–,–,–
"CSCC[C@H](NC(=O)[C@H](C)NC(=O)[C@@H]1CCCN1C(=O)[C@H](CC(N)=O)NC(=O)[C@H](CO)NC(=O)[C@H](CC(N)=O)NC(=O)[C@H](C)NC(=O)[C@@H](N)CO)C(=O)N[C@@H](C)C(=O)N1CCC[C@H]1C(=O)N[C@@H](CCCNC(=N)N)C(=O)N[C@@H](CCC(=O)O)C(=O)N[C@@H](CCCNC(=N)N)C(=O)N[C@@H](CCCCN)C(=O)N[C@@H](C)C(=O)NCC(=O)N[C@H]1CSSC[C@@H](C(=O)O)NC(=O)[C@@H](CO)NC(=O)[C@H]([C@@H](C)O)NC(=O)[C@H](Cc2ccccc2)NC(=O)[C@H]([C@@H](C)O)NC(=O)[C@H](CCCCN)NC(=O)[C@@H](Cc2c[nH]c3ccccc23)NC(=O)[C@H](Cc2ccccc2)NC(=O)[C@H](Cc2ccccc2)NC(=O)[C@H](CCCCN)NC1=O [Peptide 3, desAsn^19 [D-Trp^22, D-Ser^27]--SS-28] (HELM PEPTIDE1{S.A.N.S.N.P.A.M.A.P.R.E.R.K.A.G.C.K.F.F.[dW].K.T.F.T.[dS].C}$PEPTIDE1,PEPTIDE1,17:R3-27:R3$$$V2.0)",0.1,145,1,–,–,–,–
"CSCC[C@H](NC(=O)[C@H](C)NC(=O)[C@@H]1CCCN1C(=O)[C@H](CC(N)=O)NC(=O)[C@H](CO)NC(=O)[C@H](CC(N)=O)NC(=O)[C@H](C)NC(=O)[C@@H](N)CO)C(=O)N[C@@H](C)C(=O)N1CCC[C@H]1C(=O)N[C@@H](CCCNC(=N)N)C(=O)N[C@@H](CCC(=O)O)C(=O)N[C@@H](CCCNC(=N)N)C(=O)N[C@@H](CCCCN)C(=O)N[C@@H](C)C(=O)NCC(=O)N[C@H]1CSSC[C@H](C(=O)O)NC(=O)[C@H](CO)NC(=O)[C@H](Cc2ccccc2)NC(=O)[C@H]([C@@H](C)O)NC(=O)[C@H](CCCCN)NC(=O)[C@@H](Cc2c[nH]c3ccccc23)NC(=O)[C@H](Cc2ccccc2)NC(=O)[C@H](Cc2ccccc2)NC1=O [Peptide 4, desAA^18,19,26 [D-Trp^22,D-Cys^28]--SS-28] (HELM PEPTIDE1{S.A.N.S.N.P.A.M.A.P.R.E.R.K.A.G.C.F.F.[dW].K.T.F.S.[dC]}$PEPTIDE1,PEPTIDE1,17:R3-25:R3$$$V2.0)",1.51,18,14,–,–,–,–
"C[C@H](N)C(=O)NCC(=O)N[C@H]1CSSC[C@@H](C(=O)O)NC(=O)[C@H](CO)NC(=O)[C@H]([C@@H](C)O)NC(=O)[C@H](Cc2ccccc2)NC(=O)[C@H]([C@@H](C)O)NC(=O)[C@H](CCCCN)NC(=O)[C@H](Cc2c[nH]c3ccccc23)NC(=O)[C@H](Cc2ccccc2)NC(=O)[C@H](Cc2ccccc2)NC(=O)[C@H](CC(N)=O)NC(=O)[C@H](CCCCN)NC1=O [SS-14, somatostatin]",–,–,–,1,1,≤ 50,1
